Columns and labels:
[1] = system: human OA cartilage explants; assay: PGE2 levels in culture supernatant of cartilage explants; assay type: cell-based; conditions: n = 5 donors, 24 h, relative to control (Figure 6D)
Method: (§1) Figure 6 Peptide p[63−82] activity on OA knee joint tissues Human OA knee joint tissues were cultured for 24 h in the presence of BMP7, peptide p[63−82], or the scrambled version of peptide p[63−82] and compared to control conditions. (A) Cartilage tissues (n = 7 individual donors) were exposed to shown conditions and analyzed for COL2A1, COL10A1, and COX-2 mRNA expression by quantitative real-time PCR (normalized for 28S rRNA expression and relative to control conditions). (B) GAG release in medium from cartilage tissues (n = 5 individual donors) was determined, and data were calculated relative to the control condition. (C) PGE2 levels in culture supernatant from synovium (n = 5 donors). (D) PGE2 levels in culture supernatant from cartilage tissues from (B) (n = 5 donors). (E) PGE2 levels in culture supernatant from IPFP (n = 5 donors). (F) PGE2 levels in culture supernatant from the meniscus. Synovium, IPFP, and meniscus tissues were from the same 5 donors as the cartilage tissues in (B) and (C). PGE2 levels in conditions were calculated relative to controls for each donor. In graphs, error bars represent mean ± SEM; data are presented relative to the control condition for each time point. Statistical differences (unpaired two-tailed Student’s t test) were calculated to control condition: ∗p < 0.05, ∗∗p < 0.01, and ∗∗∗p < 0.001. […]

[2] = system: human OA knee cartilage explants; assay: GAG release in medium from cartilage explants; assay type: cell-based; conditions: n = 5 donors, 24 h, relative to control (Figure 6B)
Method: To determine whether peptide p[63−82] has the potency to alter chondrocyte behavior in cartilage tissue, rather than isolated HACs, cartilage biopsies from OA knees were cultured in the presence of peptide p[63−82], alongside its scrambled version and full-length BMP7.
as §1, with “Synovium, IPFP, and meniscus tissues were from the same 5 donors as the cartilage tissues in (B) and (C).” left out, “In graphs, error bars represent mean ± SEM; data are presented relative to the control condition for each time point.” left out

[3] = system: OA-HACs; assay: ALP activity assay in OA-HAC cultures; assay type: cell-based, human; conditions: three individual OA-HAC donors, 100 nM peptide, 24 h, normalized to total protein (Figure 2E)
Method: Figure 2 Bioactivity of BMP7-derived peptides p[63−82] and p[113−132] on OA-HACs Complete peptide library screening quantitative real-time PCR dataset for peptides p[63−82] and p[113−132] is presented. (A) SOX9, COL2A1, and NKX3-2 mRNA expression in the 18 OA-HAC pool exposed to 1,000, 100, 10, or 1 nM of peptide p[63−82] and p[113−132] is shown and presented relative to control (black bars) and alongside full-length BMP7 (white bars). (B) Similar to (A) but for chondrocyte hypertrophy-associated genes RUNX2, COL10A1, and ALPL. (C) Similar to (A) but for cartilage extracellular matrix remodeling-associated genes MMP13 and ADAMTS5 and inflammation-related genes COX-2 and IL-6. […] (G) In the same OA-HAC pool of 18 OA-HAC donors from the peptide library screening, sequence dependency of peptides p[63−82] and p[113−132] was determined by exposing the OA-HAC pool to scrambled versions of peptides p[63−82] and p[113−132] […] Error bars represent mean ± SEM, and statistical significance for peptide conditions or BMP7 versus control condition as determined by unpaired two-tailed Student’s t test is represented as ∗p < 0.05, ∗∗p < 0.01, and ∗∗∗p < 0.001.
Cells were lysed in 1.5 M Tris-HCl (pH 9.0) and 2% (v/v) Triton X-100 and homogenized by sonication (Soniprep 150 MSE). […] Total protein concentration was determined by a BCA assay. […]

Substance | PGE2 levels from cartilage explants [1] | sGAG release from cartilage explants [2] | alkaline phosphatase (ALP) activity [3]
BMP7: full-length recombinant bone morphogenetic protein 7 (R&D Systems), used at 1 nM | reduced | no inhibitory effect | 
H-SVLYFDDSSNVILKKYRNMV-OH [p[113−132]] |  |  | significant decrease
H-AAYYSEGESAFPLNSYMNAT-OH [p[63−82]] | reduced | no inhibitory effect | significant decrease
